# Values quoted from earlier work, collected in patent publication US4127537A, “Novel tetracosapeptides, intermediates therefor and pharmaceutical compositions and methods employing said tetracosapeptides” (priority 1977, dated 1978).
# Columns and labels:
# [1] = tested on: brain opiate receptor sites; details: natural peptide; Bradbury et al., Nature 260, 793 (1976)
# rat = details: injected directly into the brain of the rat; Belluzzi et al., Nature 260, 625 (1976)
substance,measurement,setting,value
H-Tyr-Gly-Gly-Phe-Met-OH [methionine enkephalin],binding to partially purified brain opiate receptor sites,[1],binds stereo-specifically
same,analgesic activity,rat,weak analgesic agent of short duration
